Consider 30 compounds from patent EP0525836B1, “Assay method using novel NAD synthetase” (priority 1986, dated 1988).

NAD synthetase ( EC 6.3.1.5 ), sequence (P18843 whole entry): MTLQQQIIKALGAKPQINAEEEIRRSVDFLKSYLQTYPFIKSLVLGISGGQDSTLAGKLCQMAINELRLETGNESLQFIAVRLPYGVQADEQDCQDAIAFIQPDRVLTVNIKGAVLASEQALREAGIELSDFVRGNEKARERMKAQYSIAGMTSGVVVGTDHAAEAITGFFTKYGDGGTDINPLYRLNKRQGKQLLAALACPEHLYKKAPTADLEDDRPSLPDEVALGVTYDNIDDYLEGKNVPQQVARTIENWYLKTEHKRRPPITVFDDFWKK

The target in one experiment is T1, NAD synthetase (Geobacillus stearothermophilus ATCC 12980, UniProt A0ACH1E6M2).
T1 sequence (A0ACH1E6M2 1-246): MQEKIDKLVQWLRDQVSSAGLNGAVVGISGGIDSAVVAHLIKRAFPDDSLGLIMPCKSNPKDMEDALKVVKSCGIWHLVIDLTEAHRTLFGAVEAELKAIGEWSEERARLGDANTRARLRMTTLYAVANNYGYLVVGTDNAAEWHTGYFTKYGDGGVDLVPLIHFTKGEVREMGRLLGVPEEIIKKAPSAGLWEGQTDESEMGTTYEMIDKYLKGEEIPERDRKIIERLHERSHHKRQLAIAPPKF
The experiment is described as follows: biochemical. Format: biochemical, Bacillus stearothermophilus H-804. To be noted: 5 mM in reaction medium I. Here is the method:
In the enzyme activity assay, each metallic ion ( 5 mM ), EDTA ( 20 mM ) or each surface active agent ( 0.1 % ) in Table 1 is added separately to the reaction medium I, and the enzyme activity is measured. […]
(§1) • 50 mM Tris-HC ℓ buffer pH 8.0 • 1 mM K C ℓ • 5 mM MgC ℓ 2 • 0.05 % bovine serum albumin • 2 mM ATP • 0.5 mM deamide-NAD • 25 mM ( NH4 )2 SO4
(§2) • 50 mM Tris-HCℓ buffer pH 8.0 • 10 U diaphorase ( Toyo Jozo Co. from genus Bacillus) • 3 % ethanol • 10 U alcohol dehydrogenase/m ℓ ( Toyo Jozo, yeast ) • 0.025 % NTB ( nitrotetrazolium blue ) • 0.1 % Triton X-100 • 10 mM EDTA
(§3) Reaction medium I ( 0.3 mℓ ) in a test tube is pre-incubated at 37 °C, and the enzyme solution ( 5 µ ℓ ) is added thereto. The mixture is then incubated at 37 °C for exactly 10 minutes.
(§4) Reaction medium II ( 0.8 mℓ ) is added thereto to stop the reaction and simultaneously to start the cycling reaction at 37°C for exactly 5 minutes. After stopping the cycling reaction by adding 0.1 N-HC ℓ( 2.0 mℓ) , the absorbency at 550 nm is measured to calculate the enzyme activity. The enzyme activity is calculated by the following equation : NAD synthetase activity ( mU/ m ℓ ) = (ΔA550)/(ΔS550)x(1.0)/(0.005)x(f)/(10) [formula] wherein ΔA: absorbency of specimen, ΔS: absorbency of standard solution ( 0.1 mM NAD ), 0.005: specimen volume ( mℓ ) 10 : reaction time, f : dilution ration.
With NiCℓ2, the “Effect on enzyme activity” value is on record as “inhibited”.

The same experiment, now with this note: 20000 µM.
As for `O=C(O)CN(CCN(CC(=O)O)CC(=O)O)CC(=O)O` [EDTA, reference compound], the “Effect on enzyme activity” value is reported as “no activity”.

Staying with this experiment, now noted: metallic ion 5 mM added to reaction medium I, which contains MgCℓ2 5 mM; no addition = 100; 10 min.
On to AℓCℓ3, for which the Relative activity is reported as 73.4%. Same read-out and setting: then NaNO3, with 96.8%; and KNO3, with 99.2%.

For CaCℓ2, the Relative activity came to 48.4%.

For FeCℓ3, the Relative activity was determined as 88.4%.

Turning to NiCℓ2, the Relative activity is on record as 7.3%. As to LiCℓ, the Relative activity was 100%. For MnCℓ2, the Relative activity is 54.0%. Take NaCℓ: the Relative activity is recorded as 102.4%. For CsCℓ, the Relative activity is 100%. Regarding BaCℓ2, the Relative activity was found to be 89.5%. For the compound NaN3, the Relative activity was found to be 102.4%.

Staying with this experiment, now noted: read-out: Relative activity.
Regarding `O=C(O)CN(CCN(CC(=O)O)CC(=O)O)CC(=O)O` [EDTA, reference compound], the activity at 20000 µM stood at 0%.

Staying with this experiment, now noted: surface active agent 0.1 % added to reaction medium I, which contains MgCℓ2 5 mM; no addition = 100.
“iso-octyl phenoxy polyethyloxy ethanol [Triton X-100]”: the Relative activity is on record as 109.6%. In the case of Nonidet P-40, the Relative activity was found to be 103.9%.

The target of a further experiment is T1, NAD synthetase. As to the kind of experiment: Substrate specificity: ( NH4 ) 2SO4 replaced by amino acids in the enzyme activity assay. Format: biochemical, Bacillus stearothermophilus H-804. The note with it: ( NH4 ) 2SO4 25 mM replaced by the amino acid; activity on ( NH4 ) 2SO4 is 100. Here is the method:
In any assay method for enzyme activity hereinafter described, ( NH4 ) 2SO4 25 mM may be replaced by L-valine, L-homosirine, L-serine, L-alanine, L-methine, L-tyrosine, L-threonine, L-leucine, L-isolucine, L-arginine, L-phenylalanine, L-histidine, L-asparagine or L-glutamine, and the enzymatic activity measured.
as §1, §2, §3, §4
With ammonium sulfate [( NH4 ) 2SO4], the “Relative activity of the enzyme” value came out at 100.

Still in this experiment, the particulars now being: ( NH4 ) 2SO4 25 mM replaced by the amino acid; activity on ( NH4 ) 2SO4 is 100; read-out: Relative activity of the enzyme.
In the case of `N[C@@H](Cc1ccc(O)cc1)C(=O)O` [L-tyrosine], the activity at 25000 µM is 0%. In the case of `C[C@@H](O)[C@H](N)C(=O)O` [L-threonine], the activity at 25000 µM was found to be 0%.

Turning to `C[C@H](N)C(=O)O` [L-alanine], the activity at 25000 µM was 0%.

As for `NC(=O)CC[C@H](N)C(=O)O` [L-glutamine], the activity at 25000 µM was determined as 0%. The same measure, in the same setting: the result for `CC[C@H](C)[C@H](N)C(=O)O` [L-isolucine] reads 0%. With `N=C(N)NCCC[C@H](N)C(=O)O` [L-arginine], the activity at 25000 µM is 0%. For the compound `NC(=O)C[C@H](N)C(=O)O` [L-asparagine], the activity at 25000 µM is 0%. Regarding `N[C@@H](Cc1ccccc1)C(=O)O` [L-phenylalanine], the activity at 25000 µM turned out to be 0%. With `N[C@@H](Cc1c[nH]cn1)C(=O)O` [L-histidine], the activity at 25000 µM worked out at 0%. Still for that read-out and setting: the result for `N[C@@H](CO)C(=O)O` [L-serine] reads 0%. Same read-out and setting: the result for `CSCC[C@H](N)C(=O)O` [L-methine] reads 0%; that for `CC(C)C[C@H](N)C(=O)O` [L-leucine], 0%; that for `CC(C)[C@H](N)C(=O)O` [L-valine], 0%. As to `N[C@@H](CCO)C(=O)O` [L-homosirine], the activity at 25000 µM came to 0%.

In a further experiment the target is T1, NAD synthetase. The experiment is described as follows: Optimum concentration of metallic ion (Example 8). To be noted: 0.25 to 4 mM tested in reaction medium I without MgCℓ2. Type of experiment: biochemical, Bacillus stearothermophilus H-804. Here is the method:
Reaction medium I : • 50 mM Tris-HC ℓ buffer pH 8.0 • 10 mM KC ℓ • 2 mM ATP • 0.05 % bovine serum albumin • 0.5 mM deamide-NAD • 25 mM ( NH4 )2SO4
Reaction medium II: • 50 mM Tris-HC ℓ buffer pH 8.0 • 10 U diaphorase/m ℓ ( Toyo Jozo Co, Bacillus ) • 3 % ethanol • 10 U alcohol dehydrogenase/mℓ (Toyobo Co, yeast) • 0.025 % NTB • 0.1 % Triton X-100 • 10mM EDTA
To a reaction medium I in a test tube were added 0.25, 0.50, 0.75, 1, 2, 3 and 4 mM MgCℓ2 and 0.25, 0.50, 0.75, 1, 2, 3 and 4 mM MnCℓ2, respectively; each was then treated, after adding the present NAD synthetase solution, according to an assay method as previously illustrated.
Optimum concentration of MnCℓ2 is at 3mM.
As for MnCℓ2, the Optimum concentration is 3 mM.

The next experiment addresses NAD synthetase ( EC 6.3.1.5 ) (Escherichia coli, UniProt P18843).
Assay: not given
To be noted: read-out: km-value, literature value; cited from earlier work.
One may read the Km as the concentration of substrate that gives half-maximal velocity. `NC(=O)CC[C@H](N)C(=O)O` [L-glutamine]: the Km is 16 mM.
